This is an account of results in patent US20070128217A1 (priority 2003, published 2007).

The test system of assay [1] is antibodies in sera from SARS patients (sera 1a, 1b, 2, 6, 37, 62, London, SARS-yellow, SARS-green). The class given is binding, human. On the set-up: Binding of serum 6 to linear peptides of protein X1 of SARS-CoV Urbani / Binding of serum 37 to linear peptides of protein X1 of SARS-CoV Urbani / Binding of serum 6 to looped/cyclic peptide (PEPSCAN-ELISA) / Binding of serum 37 to looped/cyclic peptide (PEPSCAN-ELISA) / Binding of serum 37 to looped/cyclic peptides of protein X1 of SARS-CoV Urbani / Binding of serum 6 to linear peptides of protein X2 / Binding of serum 37 to linear peptides of protein X2 / Binding of serum 37 to looped/cyclic peptides of protein X2 of SARS-CoV Urbani / Binding of serum 6 to linear peptides of protein M of SARS-CoV Urbani / Binding of serum 37 to linear peptides of protein M of SARS-CoV Urbani / Binding of serum 6 to looped/cyclic peptides of protein M of SARS-CoV Urbani / Binding of serum 37 to looped/cyclic peptides of protein M of SARS-CoV Urbani / Binding of serum 6 to linear peptides of protein X3 of SARS-CoV Urbani / Binding of serum 37 to linear peptides of protein X3 of SARS-CoV Urbani / Binding of serum 37 to looped/cyclic peptides of protein X3 of SARS-CoV Urbani / Binding of serum 6 to linear peptides of protein X4 of SARS-CoV Urbani / Binding of serum 37 to linear peptides of protein X4 of SARS-CoV Urbani / Binding of serum 37 to looped/cyclic peptides of protein X4 of SARS-CoV Urbani / Binding of serum 6 to linear peptides of protein X5 of SARS-CoV Urbani / Binding of serum 37 to linear peptides of protein X5 of SARS-CoV Urbani / Binding of serum 37 to looped/cyclic peptides of protein X5 of SARS-CoV Urbani / Binding of serum 6 to linear peptides of protein N of SARS-CoV Urbani / Binding of serum 37 to linear peptides of protein N of SARS-CoV Urbani / Binding of serum 6 to linear peptide (PEPSCAN-ELISA) / Binding of serum 1a to looped/cyclic peptides of protein N of SARS-CoV Urbani / Binding of serum 1b to looped/cyclic peptides of protein N of SARS-CoV Urbani / Binding of serum 2 to looped/cyclic peptides of protein N of SARS-CoV Urbani / Binding of serum 6 to looped/cyclic peptides of protein N of SARS-CoV Urbani / Binding of serum 37 to looped/cyclic peptides of protein N of SARS-CoV Urbani / Binding of serum 62 to looped/cyclic peptides of protein N of SARS-CoV Urbani / Binding of serum London to looped/cyclic peptides of protein N of SARS-CoV Urbani / Binding of serum SARS-green to looped/cyclic peptides of protein N of SARS-CoV Urbani: unit not given here.

Assay [2] deals with rabbit serum obtained by immunizing a rabbit with the SARS-CoV strain Frankfurt 1. The format is binding. On the set-up: Binding of a rabbit serum to linear peptides / Binding of a rabbit serum to looped peptides / Rabbit serum linear peptides / Rabbit serum looped peptides / Binding of a rabbit serum to linear peptides of protein N of SARS-CoV Urbani (Rabbit serum linear peptides) / Binding of a rabbit serum to looped/cyclic peptides of protein N of SARS-CoV Urbani (Rabbit serum looped peptides): unit not given here.

For assay [3], the system named is control sera (pooled serum of ten healthy LUMC hospital workers; commercial negative donor pooled serum from the Dutch bloodbank). The class given is binding, human. On the set-up: Binding of Control serum LUMC to linear peptides / Binding of Control serum Blood-bank to linear peptides / Binding of Control serum LUMC to looped peptides / Binding of Control Serum Blood-Bank to Looped peptides / Binding of Control serum LUMC to linear peptides of the protein M of SARS-CoV Urbani / Binding of Control serum Blood-bank to linear peptides of the protein M of SARS-CoV Urbani / Binding of Control serum LUMC to looped peptides of the protein M of SARS-CoV Urbani / Binding of Control Serum Blood-Bank to Looped peptides of the protein M of SARS-CoV Urbani: unit not given here.

Regarding SGFAAYNRYRIGNYK, in assay [1], the “Binding of serum 1a to linear peptides of protein M of SARS-CoV Urbani” value amounted to 0.8, the “Binding of serum 1a to looped/cyclic peptides of protein M of SARS-CoV Urbani” value was determined as 0.9, the “Binding of serum 1b to linear peptides of protein M of SARS-CoV Urbani” value is 0.4 and the “Binding of serum 1b to looped/cyclic peptides of protein M of SARS-CoV Urbani” value amounted to 0.6. In addition, in assay [1], the “Binding of serum 2 to linear peptides of protein M of SARS-CoV Urbani” value is on record as 0.6, the “Binding of serum 2 to looped/cyclic peptides of protein M of SARS-CoV Urbani” value amounted to 0.9, the “Binding of serum 6 to linear peptides of protein M of SARS-CoV Urbani” value was found to be 0.8 and the “Binding of serum 6 to looped/cyclic peptides of protein M of SARS-CoV Urbani” value worked out at 1.4. Besides, in assay [1], the “Binding of serum 37 to linear peptides of protein M of SARS-CoV Urbani” value worked out at 0.7, the “Binding of serum 37 to looped/cyclic peptides of protein M of SARS-CoV Urbani” value was found to be 0.7, the “Binding of serum 62 to linear peptides of protein M of SARS-CoV Urbani” value is given as 0.8 and the “Binding of serum 62 to looped/cyclic peptides of protein M of SARS-CoV Urbani” value is 0.7. Moreover, in assay [1], the “Binding of serum London to linear peptides of protein M of SARS-CoV Urbani” value worked out at 0.4, the “Binding of serum London to looped/cyclic peptides of protein M of SARS-CoV Urbani” value was determined as 0.3, the “Binding of serum SARS-green to linear peptides of protein M of SARS-CoV Urbani” value worked out at 0.3 and the “Binding of serum SARS-green to looped/cyclic peptides of protein M of SARS-CoV Urbani” value was 0.2. Besides, in assay [1], the “Binding of serum SARS-yellow to linear peptides of protein M of SARS-CoV Urbani” value was determined as 0.0 and the “Binding of serum SARS-yellow to looped/cyclic peptides of protein M of SARS-CoV Urbani” value is listed as 0.7. Besides, in assay [2], the “Rabbit serum linear peptides” value is 1.2 and the “Rabbit serum looped peptides” value came to 1.6. Moreover, in assay [3], the “Binding of Control Serum Blood-Bank to Looped peptides of the protein M of SARS-CoV Urbani” value was found to be 0.7, the “Binding of Control serum Blood-bank to linear peptides of the protein M of SARS-CoV Urbani” value is given as 0.6, the “Binding of Control serum LUMC to linear peptides of the protein M of SARS-CoV Urbani” value worked out at 0.4 and the “Binding of Control serum LUMC to looped peptides of the protein M of SARS-CoV Urbani” value is listed as 0.8.
With SHLLLVAAGMEAQFL, in assay [1], the “Binding of serum 1a to linear peptides of protein X1 of SARS-CoV Urbani” value is recorded as 0.8, the “Binding of serum 1a to looped/cyclic peptide (PEPSCAN-ELISA)” value amounted to 0.2, the “Binding of serum 1b to linear peptides of protein X1 of SARS-CoV Urbani” value was determined as 0.7 and the “Binding of serum 1b to looped/cyclic peptide (PEPSCAN-ELISA)” value was found to be 0.5. Moreover, in assay [1], the “Binding of serum 2 to linear peptides of protein X1 of SARS-CoV Urbani” value was found to be 0.7, the “Binding of serum 2 to looped/cyclic peptide (PEPSCAN-ELISA)” value is 0.1, the “Binding of serum 6 to linear peptides of protein X1 of SARS-CoV Urbani” value stood at 0.6 and the “Binding of serum 6 to looped/cyclic peptide (PEPSCAN-ELISA)” value turned out to be 0.1. Moreover, in assay [1], the “Binding of serum 37 to linear peptides of protein X1 of SARS-CoV Urbani” value is on record as 0.8, the “Binding of serum 37 to looped/cyclic peptide (PEPSCAN-ELISA)” value is 0.1, the “Binding of serum 62 to linear peptides of protein X1 of SARS-CoV Urbani” value is 0.8 and the “Binding of serum 62 to looped/cyclic peptide (PEPSCAN-ELISA)” value amounted to 0.2. For the same sequence, in assay [1], the “Binding of serum London to linear peptides of protein X1 of SARS-CoV Urbani” value was 0.3, the “Binding of serum London to looped/cyclic peptide (PEPSCAN-ELISA)” value was found to be 0.1, the “Binding of serum SARS-green to linear peptides of protein X1 of SARS-CoV Urbani” value is on record as 0.3 and the “Binding of serum SARS-green to looped/cyclic peptide (PEPSCAN-ELISA)” value amounted to 0.5. In assay [1], the “Binding of serum SARS-yellow to linear peptides of protein X1 of SARS-CoV Urbani” value came out at 0.7 and the “Binding of serum SARS-yellow to looped/cyclic peptide (PEPSCAN-ELISA)” value is listed as 0.0. Moreover, in assay [2], the “Binding of a rabbit serum to linear peptides” value came to 0.5 and the “Binding of a rabbit serum to looped peptides” value stood at 0.0. For the same sequence, in assay [3], the “Binding of Control Serum Blood-Bank to Looped peptides” value is on record as 0.4, the “Binding of Control serum Blood-bank to linear peptides” value is given as 0.7, the “Binding of Control serum LUMC to linear peptides” value was 0.7 and the “Binding of Control serum LUMC to looped peptides” value came out at 0.2.
Turning to SKNPLLYDANYFVCW, in assay [1], the “Binding of serum 1a to linear peptides of protein X1 of SARS-CoV Urbani” value is reported as 0.7, the “Binding of serum 1a to looped/cyclic peptide (PEPSCAN-ELISA)” value is on record as 0.6, the “Binding of serum 1b to linear peptides of protein X1 of SARS-CoV Urbani” value is reported as 0.5 and the “Binding of serum 1b to looped/cyclic peptide (PEPSCAN-ELISA)” value amounted to 0.5. In assay [1], the “Binding of serum 2 to linear peptides of protein X1 of SARS-CoV Urbani” value was 0.4, the “Binding of serum 2 to looped/cyclic peptide (PEPSCAN-ELISA)” value is recorded as 0.5, the “Binding of serum 6 to linear peptides of protein X1 of SARS-CoV Urbani” value is 0.5 and the “Binding of serum 6 to looped/cyclic peptide (PEPSCAN-ELISA)” value is reported as 0.4. Besides, in assay [1], the “Binding of serum 37 to linear peptides of protein X1 of SARS-CoV Urbani” value was 0.5, the “Binding of serum 37 to looped/cyclic peptide (PEPSCAN-ELISA)” value is on record as 0.6, the “Binding of serum 62 to linear peptides of protein X1 of SARS-CoV Urbani” value is reported as 0.4 and the “Binding of serum 62 to looped/cyclic peptide (PEPSCAN-ELISA)” value is 0.6. In assay [1], the “Binding of serum London to linear peptides of protein X1 of SARS-CoV Urbani” value was found to be 0.2, the “Binding of serum London to looped/cyclic peptide (PEPSCAN-ELISA)” value is given as 0.2, the “Binding of serum SARS-green to linear peptides of protein X1 of SARS-CoV Urbani” value is reported as 0.2 and the “Binding of serum SARS-green to looped/cyclic peptide (PEPSCAN-ELISA)” value turned out to be 0.4. Further, in assay [1], the “Binding of serum SARS-yellow to linear peptides of protein X1 of SARS-CoV Urbani” value is recorded as 0.4 and the “Binding of serum SARS-yellow to looped/cyclic peptide (PEPSCAN-ELISA)” value is 0.5. Further, in assay [2], the “Binding of a rabbit serum to linear peptides” value was 0.1 and the “Binding of a rabbit serum to looped peptides” value is on record as 0.6. In assay [3], the “Binding of Control Serum Blood-Bank to Looped peptides” value is listed as 0.6, the “Binding of Control serum Blood-bank to linear peptides” value turned out to be 0.4, the “Binding of Control serum LUMC to linear peptides” value was found to be 0.5 and the “Binding of Control serum LUMC to looped peptides” value is recorded as 0.6.
On to SLHKLLQTLVLKMLH, for which, in assay [1], the “Binding of serum 1a to linear peptides of protein X2” value was determined as 0.7, the “Binding of serum 1a to looped/cyclic peptides of protein X2 of SARS-CoV Urbani” value is on record as 0.6, the “Binding of serum 1b to linear peptides of protein X2” value is given as 0.5 and the “Binding of serum 1b to looped/cyclic peptides of protein X2 of SARS-CoV Urbani” value is listed as 0.5. Besides, in assay [1], the “Binding of serum 2 to linear peptides of protein X2” value is listed as 0.3, the “Binding of serum 2 to looped/cyclic peptides of protein X2 of SARS-CoV Urbani” value turned out to be 0.4, the “Binding of serum 6 to linear peptides of protein X2” value was determined as 0.3 and the “Binding of serum 6 to looped/cyclic peptides of protein X2 of SARS-CoV Urbani” value is given as 0.3. Also, in assay [1], the “Binding of serum 37 to linear peptides of protein X2” value amounted to 0.4, the “Binding of serum 37 to looped/cyclic peptides of protein X2 of SARS-CoV Urbani” value stood at 0.4, the “Binding of serum 62 to linear peptides of protein X2” value is listed as 0.6 and the “Binding of serum 62 to looped/cyclic peptides of protein X2 of SARS-CoV Urbani” value was 0.7. Further, in assay [1], the “Binding of serum London to linear peptides of protein X2” value worked out at 0.3, the “Binding of serum London to looped/cyclic peptides of protein X2 of SARS-CoV Urbani” value worked out at 0.3, the “Binding of serum SARS-green to linear peptides of protein X2” value is reported as 0.4 and the “Binding of serum SARS-green to looped/cyclic peptides of protein X2 of SARS-CoV Urbani” value came out at 0.3. In assay [1], the “Binding of serum SARS-yellow to linear peptides of protein X2” value is recorded as 0.1 and the “Binding of serum SARS-yellow to looped/cyclic peptides of protein X2 of SARS-CoV Urbani” value stood at 0.5. In assay [2], the “Binding of a rabbit serum to linear peptides” value is given as 0.3 and the “Binding of a rabbit serum to looped peptides” value amounted to 0.5. Also, in assay [3], the “Binding of Control Serum Blood-Bank to Looped peptides” value came out at 0.7, the “Binding of Control serum Blood-bank to linear peptides” value came to 0.6, the “Binding of Control serum LUMC to linear peptides” value came out at 0.3 and the “Binding of Control serum LUMC to looped peptides” value is listed as 0.7.
